The values that follow come from article PMC5653977 (EMBO Molecular Medicine, 2017).

The target in data set [1] is EGFR-NTEV-tevS-GV + ERBB2-CTEV (Homo sapiens, UniProt P00533+P04626). Description: ERBB dimerization split TEV assay EGFR/ERBB2. The settings on record: 10 ng/ml EGFld. The format is cell-based. The text has this: (§1) Gateway recombination cloning (Life Technologies) was applied for generating plasmids. Each ORF cloned was PCR‐amplified using the Pwo proofreading DNA polymerase (Roche) and BP‐recombined into the pDONR/Zeo plasmid (Life Technologies) to yield an entry vector, which was control‐digested using BsrGI to release the insert, and sequence‐verified. The following human ORFs were cloned using cDNA image clones ordered from Source BioScience: ERBB4 transcript variant JM‐a/CYT‐1 (Accession: BC112199), PIK3R1 (BC094795), GRB2 transcript variant 1 (BC000631), SHC1 transcript variant 2 (BC014158), STAT5A (BC027036), and SRC transcription variant 1 (BC051270). For EGFR, ERBB2, and ERBB3, entry vectors were obtained from the human CCSB kinase collection available from Addgene (Johannessen et al, 2010). Entry vectors were LR‐recombined into split TEV destination vectors [either pcDNA_attR1‐ORF‐attR2‐NTEV‐tevS‐GV‐2xHA_DEST or pTag4C_attR1‐ORF‐attR2‐CTEV‐2xHA_DEST, plasmids were described in detail before (Wehr et al, 2006)] to yield expression vectors, which were control‐digested using BsrGI. The plasmids for Nrg1 type I β1a and rat Nrg1 type III β1a have been described before (Wehr et al, 2006).
Sequence of EGFR-NTEV-tevS-GV + ERBB2-CTEV (P00533 25-1210): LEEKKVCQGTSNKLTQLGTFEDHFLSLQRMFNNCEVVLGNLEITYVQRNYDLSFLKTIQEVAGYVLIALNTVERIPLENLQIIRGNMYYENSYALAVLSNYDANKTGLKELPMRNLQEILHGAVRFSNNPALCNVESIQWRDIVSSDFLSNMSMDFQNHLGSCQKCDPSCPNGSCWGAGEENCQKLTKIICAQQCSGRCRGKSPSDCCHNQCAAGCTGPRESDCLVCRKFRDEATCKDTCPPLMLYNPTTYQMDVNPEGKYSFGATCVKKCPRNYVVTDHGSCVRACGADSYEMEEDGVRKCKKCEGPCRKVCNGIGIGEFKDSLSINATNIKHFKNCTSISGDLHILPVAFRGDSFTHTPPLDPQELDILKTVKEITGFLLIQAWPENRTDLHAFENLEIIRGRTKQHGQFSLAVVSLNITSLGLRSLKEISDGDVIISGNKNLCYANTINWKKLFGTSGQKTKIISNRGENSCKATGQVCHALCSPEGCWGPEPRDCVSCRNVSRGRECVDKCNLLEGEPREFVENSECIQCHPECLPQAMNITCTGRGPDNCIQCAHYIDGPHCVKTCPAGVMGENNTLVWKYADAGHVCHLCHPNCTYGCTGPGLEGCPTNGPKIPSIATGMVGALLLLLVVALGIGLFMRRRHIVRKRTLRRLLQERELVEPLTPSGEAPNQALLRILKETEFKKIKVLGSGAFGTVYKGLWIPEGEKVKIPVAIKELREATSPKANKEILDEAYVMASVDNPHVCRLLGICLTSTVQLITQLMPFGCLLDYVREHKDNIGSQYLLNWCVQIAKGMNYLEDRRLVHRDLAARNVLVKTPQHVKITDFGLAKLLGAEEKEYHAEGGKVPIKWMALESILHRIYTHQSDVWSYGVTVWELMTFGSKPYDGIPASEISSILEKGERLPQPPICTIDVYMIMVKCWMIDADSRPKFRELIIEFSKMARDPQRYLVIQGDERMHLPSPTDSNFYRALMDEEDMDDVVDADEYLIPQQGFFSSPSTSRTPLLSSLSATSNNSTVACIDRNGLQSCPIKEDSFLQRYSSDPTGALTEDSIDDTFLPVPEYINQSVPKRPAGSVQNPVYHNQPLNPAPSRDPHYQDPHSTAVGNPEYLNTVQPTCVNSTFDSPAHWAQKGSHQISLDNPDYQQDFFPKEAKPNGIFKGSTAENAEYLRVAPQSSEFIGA
Sequence of EGFR-NTEV-tevS-GV + ERBB2-CTEV (P04626 23-1255): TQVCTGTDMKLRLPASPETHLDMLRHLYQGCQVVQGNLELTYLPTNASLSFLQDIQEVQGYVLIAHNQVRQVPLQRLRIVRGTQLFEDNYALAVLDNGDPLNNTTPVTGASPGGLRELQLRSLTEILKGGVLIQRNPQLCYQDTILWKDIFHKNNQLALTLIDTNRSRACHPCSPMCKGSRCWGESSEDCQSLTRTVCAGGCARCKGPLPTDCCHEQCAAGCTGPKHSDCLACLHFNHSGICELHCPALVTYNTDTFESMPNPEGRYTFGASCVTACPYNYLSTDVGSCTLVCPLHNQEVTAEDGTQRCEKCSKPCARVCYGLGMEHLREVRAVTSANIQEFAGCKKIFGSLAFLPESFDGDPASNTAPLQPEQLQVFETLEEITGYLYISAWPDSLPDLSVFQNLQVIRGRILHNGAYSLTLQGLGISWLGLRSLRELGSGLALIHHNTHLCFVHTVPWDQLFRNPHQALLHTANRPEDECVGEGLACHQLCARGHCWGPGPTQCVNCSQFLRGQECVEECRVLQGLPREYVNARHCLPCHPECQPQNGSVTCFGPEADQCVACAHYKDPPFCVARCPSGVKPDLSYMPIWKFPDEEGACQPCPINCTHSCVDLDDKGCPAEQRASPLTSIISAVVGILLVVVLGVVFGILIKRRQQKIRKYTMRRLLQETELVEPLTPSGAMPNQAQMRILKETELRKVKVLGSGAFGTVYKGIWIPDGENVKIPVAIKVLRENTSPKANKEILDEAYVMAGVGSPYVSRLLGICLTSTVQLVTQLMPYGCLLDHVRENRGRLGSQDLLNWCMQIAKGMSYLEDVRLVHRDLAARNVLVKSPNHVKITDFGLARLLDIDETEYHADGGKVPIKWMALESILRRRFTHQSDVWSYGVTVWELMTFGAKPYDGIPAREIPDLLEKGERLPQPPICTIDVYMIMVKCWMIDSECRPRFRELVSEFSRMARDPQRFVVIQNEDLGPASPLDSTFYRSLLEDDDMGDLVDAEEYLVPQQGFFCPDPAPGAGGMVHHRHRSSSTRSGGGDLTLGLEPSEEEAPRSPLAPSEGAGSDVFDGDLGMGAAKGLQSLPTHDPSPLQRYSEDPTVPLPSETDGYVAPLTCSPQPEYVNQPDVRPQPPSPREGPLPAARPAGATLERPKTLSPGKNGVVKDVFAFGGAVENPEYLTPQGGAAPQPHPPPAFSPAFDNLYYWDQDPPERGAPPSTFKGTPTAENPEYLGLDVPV

For data set [2], the target named is EGFR-NTEV-tevS-GV + ERBB3-CTEV (Homo sapiens, UniProt P00533+P21860). As to the kind of experiment: ERBB dimerization split TEV assay EGFR/ERBB3. The format is cell-based. The conditions noted are these: 10 ng/ml EGFld.
Source text: as §1

Data set [3] has as its target T1, TEV protease (Tobacco etch virus, UniProt P04517).
T1 construct: a transmembrane‐localized TEV protease (TM‐TEV) was expressed in PC12 cells; expressed in transfected cells; host or cells: PC12 Tet-Off cells (rat)
Description: TEV protease activity control assay (TM-TEV/TM-tevS-GV). The format is cell-based. The settings on record: TM-TEV, TM-tevS-GV and 10×UAS-Fluc in PC12 cells. An excerpt:
All counts (407 compounds and 96 controls) from the Nrg1‐ERBB4‐PIK3R1 split TEV compound screen were plotted against the z‐score using Mondrian, with pathway activators displaying high values and inhibitors low values. For the secondary analysis, we selected all candidates that were at least three standard deviations away from the mean. […] For the GAL4/UAS assay, GAL4‐VP16 (GV) and 10×UAS firefly luciferase (10×UAS‐Fluc) plasmids were transfected into PC12 cells. For TEV protease activity assays, a transmembrane‐localized TEV protease (TM‐TEV) was expressed in PC12 cells with a transmembrane‐localized and TEV‐cleavable GV (TM‐tevS‐GV) and the 10×UAS‐Fluc reporter. […] EGFld was applied as Nrg1 stimulus. In both control assays, the assay activity (firefly luciferase, black lines) was similar to the toxicity levels (gray lines). Data are shown as mean, a nd error bars represent SEM, n = 6. The insets depict IC50 values in μM.

Data set [4] relates to PC12 cells. Description: Renilla luciferase readings as toxicity control in dose-response assay. The format is cell-based. The conditions noted are these: dose-response co-culture assay, Nrg1 type I β1a, 24 h. The text has this:
For our HTS‐compatible split TEV assay approach, human full‐length ERBB4‐Cyt1 was fused to the NTEV fragment, a TEV protease cleavage site (tevS) and the artificial co‐transcriptional activator Gal4‐VP16 (ERBB4‐NTEV‐tevS‐GV); human PIK3R1 was fused to the CTEV fragment (PIK3R1‐CTEV) (Fig 1A). Upon ERBB4 activation, PIK3R1 is recruited to the receptor resulting in a reconstituted protease activity that cleaves off GV. In turn, released GV translocates to the nucleus and binds to upstream activating sequences (UAS) to activate the transcription of a firefly luciferase reporter gene (Fig 1A). A constitutively expressed Renilla luciferase driven under the control of the human thymidine kinase (TK) promoter was used as control to address off‐target effects related to toxicity.

Data set [5] concerns Limk1. Description: Western blot of phospho-Limk1 in prefrontal cortex of spironolactone-treated mice. The conditions noted are these: Nrg1-tg mice, 50 mg/kg s.c. daily for 21 days, prefrontal cortex lysates. The format is in vivo, mouse. As for the experimental part:
(§2) For the generation of lysates, the isolated tissue was immediately placed into cooled (4°C) sucrose buffer (320 mM sucrose, 10 mM Tris–HCl, 1 mM NaHCO3, 1 mM MgCl2, supplemented with 10 mM NaF, 1 mM […], 1 mM ZnCl2, 4.5 mM Na4P20_7 as phosphatase inhibitors, and the complete protease inhibitor cocktail (Roche)), homogenized using an ultra‐turrax (IKA GmbH, Staufen, Germany), sonicated (3 pulses for 10 s), and denatured for 10 min at 70°C in LDS sample buffer.
(§3) Each blot was replicated two times.
(§4) Treatment was continued throughout the behavioral analysis period. To avoid injection‐induced stress prior to behavioral testing, mice were injected in the afternoon, after the entire cohort has completed the behavioral paradigm.

Data set [6] deals with ERK. Description: Western blot of pERK in prefrontal cortex of spironolactone-treated mice. The format is in vivo, mouse. The settings on record: Nrg1-tg and wt mice, 50 mg/kg s.c. daily for 21 days, prefrontal cortex lysates. The method, then: as §2, §3, §4
Data set [7] deals with Nrg1-tg and wt mice. As to the kind of experiment: Y-maze test. The format is in vivo, mouse. The conditions noted are these: 50 mg/kg s.c. daily. As for the experimental part: (§5) For behavioral testing, age‐matched male mice (8–16 weeks) on C57Bl/6 background that constitutively overexpress the 2xHA‐tagged Nrg1 type III β1a isoform (Nrg1‐tg) under the control of the mouse Thy1.2 promoter (Velanac et al, 2012) and their wild‐type (wt) littermates as controls were used. Animals were group‐housed in the same ventilated sound‐attenuated rooms under a 12‐h light/12‐h dark schedule (lights on at 8:00 am) at an ambient temperature of 21°C with food and water available ad libitum. One week prior to experiments, mice were separated into single cages and habituated to the experimental rooms. To minimize the influence of the circadian rhythm on drug actions, the treatment groups were analyzed at balanced time points during the light phase. […] All animal experiments were conducted in accordance with NIH principles of laboratory animal care and were approved by the Government of Lower Saxony, Germany, in accordance with the German Animal Protection Law.
as §4

For data set [8], the system named is Nrg1-tg and wt mice. Description: Hot plate test. The format is in vivo, mouse. The conditions noted are these: 50 mg/kg s.c. daily. The method, then:
as §5, §4
Background: Thermal pain tests record how soon the animal reacts.

Details of data set [9]: method as in Zhou et al, 2011. The settings on record: ref Zhou et al, 2011; cited from earlier work.
Data set [10] addresses ERBB4 (Homo sapiens, UniProt Q15303). Description: Western blot of ERBB4 phosphorylation in T-47D cells. The conditions noted are these: 10 ng/ml EGFld, 10 μM compound, 5 min.

Sequence of ERBB4 (Q15303 26-1308): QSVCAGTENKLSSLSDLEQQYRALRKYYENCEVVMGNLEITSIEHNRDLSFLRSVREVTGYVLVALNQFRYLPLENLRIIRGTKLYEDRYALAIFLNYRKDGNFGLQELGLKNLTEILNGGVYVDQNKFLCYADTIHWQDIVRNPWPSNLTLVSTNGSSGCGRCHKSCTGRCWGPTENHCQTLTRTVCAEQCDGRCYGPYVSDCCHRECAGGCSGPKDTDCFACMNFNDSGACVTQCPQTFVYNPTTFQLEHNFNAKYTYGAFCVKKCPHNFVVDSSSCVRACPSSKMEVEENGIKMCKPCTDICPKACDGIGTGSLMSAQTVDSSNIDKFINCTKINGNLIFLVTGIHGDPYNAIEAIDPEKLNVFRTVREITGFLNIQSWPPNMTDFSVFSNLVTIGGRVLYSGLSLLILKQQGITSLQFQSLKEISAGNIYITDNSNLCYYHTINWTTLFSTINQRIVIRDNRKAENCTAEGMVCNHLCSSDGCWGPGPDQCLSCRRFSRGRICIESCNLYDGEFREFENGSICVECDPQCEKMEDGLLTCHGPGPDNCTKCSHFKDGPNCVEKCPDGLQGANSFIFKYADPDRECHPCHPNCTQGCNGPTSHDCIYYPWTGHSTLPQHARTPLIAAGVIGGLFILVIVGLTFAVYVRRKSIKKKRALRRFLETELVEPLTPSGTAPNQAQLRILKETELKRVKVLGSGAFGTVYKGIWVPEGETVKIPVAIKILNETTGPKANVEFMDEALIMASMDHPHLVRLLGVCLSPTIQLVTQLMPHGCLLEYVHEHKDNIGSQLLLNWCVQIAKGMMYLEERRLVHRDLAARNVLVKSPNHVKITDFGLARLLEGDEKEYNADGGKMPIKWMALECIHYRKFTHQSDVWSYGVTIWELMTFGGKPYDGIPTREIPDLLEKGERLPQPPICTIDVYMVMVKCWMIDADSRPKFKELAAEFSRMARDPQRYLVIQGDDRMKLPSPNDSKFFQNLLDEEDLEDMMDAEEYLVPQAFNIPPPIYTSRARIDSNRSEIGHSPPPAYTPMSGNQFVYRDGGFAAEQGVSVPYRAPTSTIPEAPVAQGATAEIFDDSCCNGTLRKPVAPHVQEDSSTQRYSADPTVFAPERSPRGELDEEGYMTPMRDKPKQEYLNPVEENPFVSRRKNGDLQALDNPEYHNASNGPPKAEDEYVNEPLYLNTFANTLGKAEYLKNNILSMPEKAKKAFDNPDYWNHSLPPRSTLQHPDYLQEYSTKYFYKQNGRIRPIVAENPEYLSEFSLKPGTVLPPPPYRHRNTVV
T1 sequence (P04517 2038-2279): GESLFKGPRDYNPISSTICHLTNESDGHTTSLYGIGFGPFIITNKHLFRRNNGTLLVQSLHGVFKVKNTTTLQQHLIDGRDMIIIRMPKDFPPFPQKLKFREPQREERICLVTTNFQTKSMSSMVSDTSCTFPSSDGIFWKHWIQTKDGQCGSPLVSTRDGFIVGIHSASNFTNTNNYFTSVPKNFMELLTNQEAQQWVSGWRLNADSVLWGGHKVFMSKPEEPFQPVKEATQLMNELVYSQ

For `CC(=O)S[C@@H]1CC2=CC(=O)CC[C@]2(C)[C@H]2CC[C@@]3(C)[C@@H](CC[C@@]34CCC(=O)O4)[C@H]12` [Spironolactone], the results for the IC50 in data set [1] and in data set [2] were 4.66 µM and 2810 nM, respectively. For the same molecule, the “effect on activity of the TEV protease” value in data set [3] was “does not affect activities of control assays”. Further, in data set [4], the “toxic effects (reduced Renilla luciferase readings)” value is listed as “marginal toxic effects at higher concentrations”. Further, in [5], the phospho-Limk1 levels entry is given as “markedly upregulated”. For the same molecule, the “pERK (downstream signaling)” value in data set [6] is “neither modulated by Nrg1 overexpression, nor by spironolactone treatment”. In data set [7], the “arm choices in the Y-maze (activity)” value is listed as “There was no effect of treatment”. Moreover, the “working memory (alterations in the Y-maze)” value in data set [7] (Nrg1-tg mice) is “rescued these deficits”. The “pain sensitivity (latency to the first reaction, hot plate 52°C)” value in data set [8] is reported as “significantly decreased levels of pain sensitivity”. For the same molecule, the “recent fear memory formation in mice” value in data set [9] is reported as “impaired recent fear memory formation”. Also, the “ERBB4 phosphorylation at Tyr1056 and Tyr1284” value in data set [10] is listed as “reduced phosphorylation to intermediate levels”.

The IC50 is the midpoint of a concentration-inhibition curve.
